Laboratory results reported in US20040006094A1, “4-pyrimidinamine derivatives, pharmaceutical compositions and related methods” (priority 2000, published 2004).

Test system: differentiated P19 neurons
Assay: Drug screening using differentiated P19 cell assay (neuroprotection against 3 mM glutamate and 1 mM glycine)
Format: cell-based, murine
Details: dose response 0.005-3 μM, >1 = no observed maximum within highest dose tested (3 μM)
Method: Commercially available chemical libraries (BioFocus PLC, UK) were screened using the methods described herein. The stock concentration of the compounds was about 400 μM in DMSO. The concentration of compounds used in the primary screen was 1 μM. […] Columns 4-11 received compounds at the following final concentrations (μM): 3, 1.2, 0.48, 0.192, 0.077, 0.031, 0.012 and 0.005. Each row contained a different compound for confirmation. Only rows B-G received compounds, and rows A and H remained untreated.
Only the 4-pyrimidinamines are the subject of this invention, although limited data for 2-pyridinamines are presented as well. “% Inh” indicates the percentage of control cells surviving after 24 hours, and represents the neuroprotective effect of the compounds screened at 1 micromolar concentration. IC50 relate to data from dose response experiments. […] ND refers to compounds not tested in dose-response experiments.
The representative compounds listed in Tables IX<X, XI and XII were tested according to the procedure described in Example 5 with results as listed in Table XIII. Unless otherwise noted, molecular weights were measure on a Hewlitt-Packard Series 1050 Chemical Ionization mass spectrometer.

| SMILES | IC50 (Mus musculus, Neuron) | IC50 |
| --- | --- | --- |
| CCN(CCO)c1ccc(Nc2cc(-c3cc(C(F)(F)F)cc(C(F)(F)F)c3)ncn2)cc1 [Cmpd 48] |  | 0.48 µM |
| CCN(CCO)c1ccc(Nc2cc(-c3cccc([N+](=O)[O-])c3)ncn2)cc1 [Cmpd 49] | 0.55 µM |  |
| CCN(CCO)c1ccc(Nc2cc(-c3ccc4ccccc4c3)ncn2)cc1 [Cmpd 45] |  | 0.57 µM |
| CCN(CCO)c1ccc(Nc2cc(C3C=C4C=CC=CC4O3)ncn2)cc1 (stereo not drawn) [Cmpd 53] | 0.54 µM |  |
| CCN(CCO)c1ccc(Nc2cc(-c3ccc(-c4ccccc4)cc3)ncn2)cc1 [Cmpd 47] | 0.49 µM |  |
| CCn1c2ccccc2c2ccc(Nc3cc(-c4ccc(OC)c(OC)c4)ncn3)cc21 [Cmpd 151] |  | > 1 µM |
| CN(C)c1ccc(Nc2cc(-c3ccc4ccccc4c3)ncn2)cc1 [Cmpd 41] |  | 0.54 µM |
| CCn1c2ccccc2c2ccc(Nc3cc(-c4ccc(N5CCN(C)CC5)cc4)ncn3)cc21 [Cmpd 154] |  | 0.55 µM |
| CN(C)c1ccc(Nc2cc(-c3ccc(OCc4ccccc4)cc3)ncn2)cc1 [Cmpd 42, 1,4-benzenediamine, N^1,N^1-dimethyl-N^4-[6-[4-(phenylmethoxy)phenyl]-4-pyrimidinyl]-] |  | 0.2 µM |
| CCn1c2ccccc2c2ccc(Nc3cc(-c4cc(OC)c(OC)c(OC)c4)ncn3)cc21 [Cmpd 152] |  | > 1 µM |
| CN(C)c1ccc(Nc2cc(-c3cccc(-c4ccccc4)c3)ncn2)cc1 [Cmpd 43, 1,4-benzenediamine, N^1-(6-[1,1′-biphenyl]-3-yl-4-pyrimidinyl)-N^4,N^4-dimethyl-] | 0.22 µM |  |
| CN(C)c1ccc(Nc2cc(-c3cc4ccccc4o3)ncn2)cc1 [Cmpd 59] |  | 0.48 µM |
| CN(C)c1ccc(Nc2cc(-c3cc(C(F)(F)F)cc(C(F)(F)F)c3)ncn2)cc1 [Cmpd 44, 1,4-benzenediamine, N^1-[6-[3,5-bis(trifluoromethyl)phenyl]-4-pyrimidinyl]-N^4,N^4-dimethyl-] | 0.26 µM |  |
| CCN(CCO)c1ccc(Nc2cc(-c3ccc(OC(F)(F)F)cc3)ncn2)cc1 [Cmpd 51, ethanol, 2-[ethyl[4-[[6-[4-(trifluoromethoxy)phenyl]-4-pyrimidinyl]amino]phenyl]amino]-] | 0.23 µM |  |
| CCN(CCO)c1ccc(Nc2cc(-c3ccc(SC)cc3)ncn2)cc1 [Cmpd 50] | 0.41 µM |  |
| CCN(CCO)c1ccc(Nc2cc(-c3cc4ccccc4s3)ncn2)cc1 [Cmpd 54, ethanol, 2-[[4-[(6-benzo[b]thien-2-yl-4-pyrimidinyl)amino]phenyl]ethylamino]-] | 0.24 µM |  |

Now from value to compound, other results behind:

| IC50 (Mus musculus, Neuron) | SMILES | IC50 |
| --- | --- | --- |
| > 1 µM | CN(C)c1ccc(Nc2cc(-c3ccc(C#N)cc3)ncn2)cc1 [Cmpd 62] |  |
| 0.86 µM | CCN(CCO)c1ccc(Nc2cc(-c3ccsc3)ncn2)cc1 [Cmpd 55] |  |
| 0.39 µM | CCN(CCO)c1ccc(Nc2cc(-c3cnc(OCc4ccccc4)nc3OCc3ccccc3)ncn2)cc1 [Cmpd 58, 2-{[4-(2′,4′-is-benzyloxy-[4,5′]bipyrimidinyl-6-ylamino)-phenyl]-ethyl-amino}-ethanol] |  |
| 0.33 µM | CN(C)c1ccc(Nc2cc(-c3ccc(N(C)C)cc3)ncn2)cc1 [Cmpd 149] |  |
| 0.47 µM | CCN(CCO)c1ccc(Nc2cc(-c3cccc(N(C)C)c3)ncn2)cc1 [Cmpd 148] |  |
| > 1 µM | CN(C)c1ccc(Nc2cc(-c3cccc4ccccc34)ncn2)cc1 [Cmpd 61] |  |
| > 1 µM | Oc1ccc(-c2cc(Nc3ccc(N4CCN(c5ccccc5)CC4)cc3)ncn2)cc1 [Cmpd 65] |  |
| > 1 µM | CN(C)c1ccc(Nc2cc(-c3ccccc3Oc3ccccc3)ncn2)cc1 [Cmpd 63] |  |
| 0.57 µM | CCN(CCO)c1ccc(Nc2cc(-c3ccccc3Oc3ccccc3)ncn2)cc1 [Cmpd 56] |  |
| > 1 µM | CCN(CCO)c1ccc(Nc2cc(-c3ccc(C#N)cc3)ncn2)cc1 [Cmpd 64] |  |
| 1.09 µM | CCN(CCO)c1ccc(Nc2cc(-c3ccc(CNC(=O)OC(C)(C)C)cc3)ncn2)cc1 [Cmpd 147] |  |
